Reference: US20260091020A1, “TREATMENT OF ACUTE CANNABINOID OVERDOSE” (Anebulo Pharmaceuticals, Inc., priority 2022, published 2026)

Assays:
Assay type in all cases: cell-based
CB2 [CNR2] [1] = target: T1, CB2 [CNR2] (Homo sapiens, UniProt P34972); assay: PathHunter GPCR Biosensor cAMP assay, CNR2 antagonist mode; settings: Gi cAMP, 25 μM Forskolin; EC80 0.0048 μM CP55940
Experimental: (§1) Compounds 2 and 3 were evaluated for activity against CB1 [CNR1] and CB2 [CNR2], both as agonists or as antagonists using the PathHunter GPCR Biosensor (Eurofins Discovery X, Fremont CA). For agonist assays, data was normalized to the maximal and minimal response observed in the presence of control ligand and vehicle. For antagonist assays, data was normalized to the maximal and minimal response observed in the presence of EC80 ligand and vehicle. The following EC80 concentrations were used: CNR1 cAMP: 0.0012 μM CP55940; CNR2 cAMP: 0.0048 μM CP55940. For Gi cAMP assays, the following forskolin concentration was used: CNR1 cAMP: 20 μM Forskolin; CNR2 cAMP: 25 μM Forskolin.

CB1 [CNR1] [2] = target: T2, CB1 [CNR1] (Homo sapiens, UniProt P21554); assay: PathHunter GPCR Biosensor cAMP assay, CNR1 antagonist mode; settings: for IC50: Gi cAMP, 20 μM Forskolin, EC80 0.0012 μM CP55940; for CB1 vs CB2 selectivity and mode of action (in words): conclusion from Table 7
Experimental: as §1

CB1 [CNR1] [3] = target: T2, CB1 [CNR1]; assay: PathHunter GPCR Biosensor cAMP assay, CNR1 agonist mode; settings: Gi cAMP, 20 μM Forskolin
Experimental: as §1

CB2 [CNR2] [4] = target: T1, CB2 [CNR2]; assay: PathHunter GPCR Biosensor cAMP assay, CNR2 agonist mode; settings: Gi cAMP, 25 μM Forskolin
Experimental: as §1

T2 sequence (P21554 whole entry): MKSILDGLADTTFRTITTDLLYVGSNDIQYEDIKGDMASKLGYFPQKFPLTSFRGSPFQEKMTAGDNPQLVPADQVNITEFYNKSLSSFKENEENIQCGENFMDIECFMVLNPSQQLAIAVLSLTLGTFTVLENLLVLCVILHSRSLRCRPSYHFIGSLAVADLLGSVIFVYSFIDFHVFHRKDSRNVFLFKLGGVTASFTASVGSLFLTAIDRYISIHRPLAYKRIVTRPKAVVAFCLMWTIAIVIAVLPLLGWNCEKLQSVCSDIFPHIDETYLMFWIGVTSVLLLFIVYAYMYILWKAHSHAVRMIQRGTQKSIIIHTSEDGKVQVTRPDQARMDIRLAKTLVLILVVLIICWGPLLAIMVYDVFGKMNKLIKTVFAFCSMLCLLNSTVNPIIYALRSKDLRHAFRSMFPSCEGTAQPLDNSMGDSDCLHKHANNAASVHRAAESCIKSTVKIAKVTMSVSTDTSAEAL
T1 sequence (P34972 whole entry): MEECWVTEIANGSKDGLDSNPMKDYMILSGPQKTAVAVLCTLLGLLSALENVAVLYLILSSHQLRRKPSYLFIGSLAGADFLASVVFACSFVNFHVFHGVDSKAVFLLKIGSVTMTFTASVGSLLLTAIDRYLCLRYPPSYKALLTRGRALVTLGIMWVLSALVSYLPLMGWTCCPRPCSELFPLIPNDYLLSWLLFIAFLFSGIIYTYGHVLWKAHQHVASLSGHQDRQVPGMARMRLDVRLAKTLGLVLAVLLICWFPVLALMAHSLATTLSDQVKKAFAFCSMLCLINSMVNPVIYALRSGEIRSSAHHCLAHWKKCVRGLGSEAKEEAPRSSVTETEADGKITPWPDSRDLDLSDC

Row | Compound | IC50 (CB2 [CNR2] [1]) [nM] | IC50 (CB1 [CNR1] [2]) [nM] | CB1 vs CB2 selectivity and mode of action (in words) (CB1 [CNR1] [2]) | EC50 (CB1 [CNR1] [3]) [nM] | EC50 (CB2 [CNR2] [4]) [nM]
1 | CC(C)(NC(=O)N1CC(OC(c2ccc(Cl)cc2)c2ccccc2C(F)(F)F)C1)C(=O)O (stereo not shown) [Compound 3, 2-(3-((4-chlorophenyl)(2-(trifluoromethyl)phenyl)methoxy)azetidine-1-carboxamido)-2-methylpropanoic acid] | > 1000 | 383 | selective CB1 antagonists | > 1000 | > 1000
2 | CC(C)(CO)NC(=O)N1CC(OC(c2ccc(Cl)cc2)c2ccccc2C(F)(F)F)C1 (stereo not shown) [Compound 2, 3-((4-chlorophenyl)(2-(trifluoromethyl)phenyl)methoxy)-N-(1-hydroxy-2-methylpropan-2-yl)azetidine-1-carboxamide] | > 1000 | 45.6 | selective CB1 antagonists | > 1000 | > 1000
